PubChem BioAssay AID1259411 (Chemical Carcinogenesis Research Information System (CCRIS), 2018)
Calls of active or inactive are those of the source. No rule for the calls is given here.

Test system: rodent carcinogenicity bioassays, tumor incidence
Assay: CCRIS carcinogenicity studies
How it was run: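 NCI-built, expert-reviewed records of carcinogenicity and related test outcomes (mutagenicity, tumor promotion/inhibition) compiled from published and report sources, historical span 1985-2011, not updated.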

`Cc1c2ccccc2c(C)c2c1ccc1ccccc12` was tested, and the carcinogen call (Species: MOUSE, Strain/Sex: SWISS/MALE,FEMALE, Route: SUBCUTANEOUS, Dose: 30-40 UG IN 0.02 ML OF 1% AQ GEL, Tumor Site: Type of Lesion: LUNG, LYMPHATIC SYSTEM: MALIGNANT LYMPHOMA) was “active; positive”, the carcinogen call (Species: RAT, Strain/Sex: ALBINO/MALE,FEMALE, Route: SUBCUTANEOUS, Dose: 5 MG IN 0.5 ML OLIVE OIL ONCE, Tumor Site: Type of Lesion: INJECTION SITE: RHABDOMYOSARCOMA) was “active; positive” and the carcinogen call (Species: RAT, Strain/Sex: BIRMINGHAM/ MALE, FEMALE, Route: DERMAL, Dose: 0.5, 1.6% SOLN IN OLIVE OIL ONCE EVERY 2 WK, Tumor Site: Type of Lesion: INTEGUMENTARY SYSTEM (SKIN): SQUAMOUS PAPILLOMA, KERATOACANTHOMA, SQUAMOUS CELL CARCINOMA, MAMMARY GLAND) was “active; positive”. The carcinogen call (Species: RAT, Strain/Sex: F344/FEMALE, 3 WKS OF AGE, Route: GAVAGE, Dose: 50 MG/KG ONCE (STUDY DURATION: 36 WKS), Tumor Site: Type of Lesion: MAMMARY GLAND: CARCINOMA) was 20% tumor incidence; 0.23 carcinomas/rat; immature rats less susceptible, the carcinogen call (Species: RAT, Strain/Sex: F344/FEMALE, 8 WKS OF AGE, Route: GAVAGE, Dose: 50 MG/KG ONCE (STUDY DURATION: 36 WKS), Tumor Site: Type of Lesion: MAMMARY GLAND: CARCINOMA) was 69% tumor incidence; 1.27 carcinomas/rat; mature rats more susceptible and the carcinogen call (Species: RAT, Strain/Sex: OUTBRED/ MALE, FEMALE, Route: DERMAL, Dose: 0.5, 1.6% SOLN IN OLIVE OIL ONCE EVERY 2 WK, Tumor Site: Type of Lesion: INTEGUMENTARY SYSTEM (SKIN): SQUAMOUS PAPILLOMA, KERATOACANTHOMA, SQUAMOUS CELL CARCINOMA, MAMMARY GLAND) was “active; positive”. The carcinogen call (Species: RAT, Strain/Sex: SPRAGUE-DAWLEY/FEMALE, Route: GAVAGE, Dose: 10 MG IN 0.5 ML SESAME OIL ONCE, Tumor Site: Type of Lesion: MAMMARY GLAND) was “active; positive”, the carcinogen call (Species: RAT, Strain/Sex: SPRAGUE-DAWLEY/FEMALE, Route: GAVAGE, Dose: 20 MG IN 1 ML SESAME OIL ONCE, Tumor Site: Type of Lesion: MAMMARY GLAND: FIBROADENOMA, CARCINOMA) was “active; positive” and the carcinogen call (Species: RAT, Strain/Sex: SPRAGUE-DAWLEY/FEMALE, Route: INJECTION, Dose: 0, 0.25, 1 UMOL PER MAMMARY GLAND (STUDY DURATION: 24 WK), Dose: 0, 0.25, 1 UMOL PER MAMMARY GLAND (STUDY DURATION: 24 WK), Tumor Site: Type of Lesion: MAMMARY GLAND: TUMOR) was “active; positive”. For the same molecule, the carcinogen call (Species: RAT, Strain/Sex: SPRAGUE-DAWLEY/FEMALE, Route: INTRAVENOUS, Dose: 5 MG IN 1 ML LIPID EMULSION ONCE, Tumor Site: Type of Lesion: MAMMARY GLAND) was “active; positive”, the carcinogen call (Species: RAT, Strain/Sex: SPRAGUE-DAWLEY/FEMALE, Route: ORAL, Dose: 10 MG IN SESAME OIL 3 TIMES AT 14 D INTERVALS, Tumor Site: Type of Lesion: MAMMARY GLAND: ADENOMA, ADENOCARCINOMA) was “active; positive” and the carcinogen call (Species: RAT, Strain/Sex: SPRAGUE-DAWLEY/FEMALE, Route: ORAL, Dose: 20 MG IN SESAME OIL ONCE, Tumor Site: Type of Lesion: MAMMARY GLAND: ADENOMA, FIBROADENOMA, CARCINOMA, ADENOCARCINOMA) was “active; positive”. For the same molecule, the carcinogen call (Species: RAT, Strain/Sex: SPRAGUE-DAWLEY/FEMALE, Route: SUBCUTANEOUS, Dose: 0, 2 UMOL IN 0.25 ML TRIOCTANOIN INTO LEFT HIND LEG AT ABOUT 40 D OF AGE FOLLOWED BY SECOND DOSE 6 D LATER (STUDY DURATI, Tumor Site: Type of Lesion: INJECTION SITE: SARCOMA) was “active; positive”, the carcinogen call (Species: RAT, Strain/Sex: SPRAGUE-DAWLEY/FEMALE, Route: SUBCUTANEOUS, Dose: 0, 2 UMOL IN 0.25 ML TRIOCTANOIN ONCE INTO LEFT HIND LEG AT ABOUT 40 D OF AGE (STUDY DURATION: 16 MO), Tumor Site: Type of Lesion: INJECTION SITE: SARCOMA) was “active; positive” and the carcinogen call (Species: RAT, Strain/Sex: STRAIN-CB/FEMALE, Route: SUBCUTANEOUS, Dose: 0.25 ML OF 1% SOLN IN DMSO ONCE, Tumor Site: Type of Lesion: INJECTION SITE: SPINDLE CELL SARCOMA) was “active; positive”. For the same molecule, the carcinogen call (Species: RAT, Strain/Sex: WISTAR/FEMALE, Route: GAVAGE, Dose: 0.4 ML OF 0.5% SUNFLOWER SEED OIL SOLN 2/WK FOR 4.5 MO (TOTAL DOSE: 68 MG), Tumor Site: Type of Lesion: HEMATOPOIETIC SYSTEM (LEUKEMIA)) was “active; positive”, the carcinogen call (Species: RAT, Strain/Sex: WISTAR/FEMALE, Route: INJECTION, Dose: 0, 0.05 ML OF A 1% SOLUTION IN ACETONE INJECTED INTO SUBMANDIBULAR SALIVARY GLANDS AFTER EXCISION OF A SMALL PORTION OF, Tumor Site: Type of Lesion: SALIVARY GLAND: ADENOCARCINOMA) was “active; positive” and the carcinogen call (Species: RAT, Strain/Sex: WISTAR/FEMALE, Route: INTRADUCTAL, Dose: 0, 1 MG IN 0.05 ML OF SESAME OIL INJECTED INTO MAIN MAMMARY DUCT ON THE 10TH PUERPERAL DAY (STUDY DURATION: 20 WK), Tumor Site: Type of Lesion: MAMMARY GLAND: DUCTAL CARCINOMA) was “active; positive”. For the same molecule, the carcinogen call (Species: RAT, Strain/Sex: WISTAR/FEMALE, Route: ORAL, Dose: 10 MG IN SESAME OIL 3 TIMES AT 14 D INTERVALS, Tumor Site: Type of Lesion: MAMMARY GLAND: ADENOMA, ADENOCARCINOMA) was “active; positive”, the carcinogen call (Species: RAT, Strain/Sex: WISTAR/FURTH/FEMALE, Route: OVARIAN IMPLANTATION OF CARCINOGEN-COATED SUTURE AT 7 WKS OF AGE, Dose: 200 UG IN SUTURE ONCE (STUDY DURATION: 1 YR), Tumor Site: Type of Lesion: OVARY: ADENOCARCINOMA, 77%) was “active; positive” and the carcinogen call (Species: RAT, Strain/Sex: WISTAR/MALE, Route: INJECTION, Dose: 0, 0.05 ML OF A 1% SOLUTION IN ACETONE INJECTED INTO SUBMANDIBULAR SALIVARY GLANDS AFTER EXCISION OF A SMALL PORTION OF, Tumor Site: Type of Lesion: SALIVARY GLAND: FIBROSARCOMA) was “active; positive”. For the same molecule, the carcinogen call (Species: RAT, Strain/Sex: ZUCKER/FEMALE, LEAN, Route: ORAL (GAVAGE), Dose: 65 MG/KG ONCE AT 50 D OF AGE (STUDY DURATION: 139 D), Tumor Site: Type of Lesion: MAMMARY: TUMOR 32%, LATENCY 86 D) was “active; positive; lean rats had longer latent period and lower tumor incidence than obes”, the carcinogen call (Species: RAT, Strain/Sex: ZUCKER/FEMALE, OBESE, Route: ORAL (GAVAGE), Dose: 65 MG/KG ONCE AT 50 D OF AGE (STUDY DURATION: 139 D), Tumor Site: Type of Lesion: MAMMARY: TUMOR 68%, LATENCY 49 D) was “active; positive; obese rats had higher tumor incidence and shorter latent period than l” and the carcinogen call (Species: Rat, Strain/Sex: Fischer 344/Female, Route: Direct application to ovary, Dose: 100 ug in sesame oil, once, study duration 5 months) was “inactive; negative”. The carcinogen call (Species: SHREW, Strain/Sex: JAPANESE/FEMALE, Route: INTRAPERITONEAL, Dose: 0, 1.25, 2.5 MG 1/WK FOR 4 WK (STUDY DURATION: 50 WK), Dose: 0, 1.25, 2.5 MG 1/WK FOR 4 WK (STUDY DURATION: 50 WK), Tumor Site: Type of Lesion: HEMATOPOIETIC SYSTEM: LEUKEMIA) was “active; positive”, the carcinogen call (Species: SHREW, Strain/Sex: JAPANESE/FEMALE, Route: INTRAPERITONEAL, Dose: 0, 1.25, 2.5 MG 1/WK FOR 8 WK (STUDY DURATION: 50 WK), Dose: 0, 1.25, 2.5 MG 1/WK FOR 8 WK (STUDY DURATION: 50 WK), Tumor Site: Type of Lesion: HEMATOPOIETIC SYSTEM: LEUKEMIA) was “active; positive” and the carcinogen call (Species: SHREW, Strain/Sex: JAPANESE/FEMALE, Route: SUBCUTANEOUS, Dose: 0, 1 MG INTO RIGHT INGUINAL SUBCUTANEOUS TISSUE OVER THE MAMMARY GLAND ONCE (STUDY DURATION: 50 WK), Tumor Site: Type of Lesion: INJECTION SITE: SARCOMA) was “active; positive”.
